Reference: US20210181183A1, “METHODS FOR DETERMINING SELECTIVITY OF TEST COMPOUNDS” (CEMM - FORSCHUNGSZENTRUM FÜR MOLEKULARE MEDIZIN GmBH, priority 2017, published 2021)

Key:
[1] = tested on: CD20+ cells over CD20- cells of a B-cell lymphoblastic lymphoma patient; test: ex vivo selectivity of compounds to kill cancerous versus non-cancerous cells, pleural effusion of B-LBL patient (Example 7); format: cell-based, human; settings: fraction of live cancerous cells of live total cells relative to DMSO control, <1 = selectively kills cancerous cells
[2] = tested on: CD79a+ cells over CD79a- cells of a diffuse large B-cell lymphoma patient; test: ex vivo selectivity of compounds to kill cancerous versus non-cancerous cells, excised lymph node of DLBCL patient (Example 8); format: cell-based, human; settings: fraction of live cancerous cells of live total cells relative to DMSO control; dissociated lymph node cells; <1 = selectively kills cancerous cells
Method: Monolayers were incubated overnight (18 h). […] Unstained cells were considered non-cancerous cells.

Compound	value/selectivity determined according to the present invention [1]	value/selectivity [2]
Sc1ncnc2nc[nH]c12 [6-mercaptopurine]	0.58	
CC(C)C[C@H](NC(=O)[C@H](Cc1ccccc1)NC(=O)c1cnccn1)B(O)O [bortezomib]	0.50	0.59
Nc1nc(Cl)nc2c1ncn2[C@H]1C[C@H](O)[C@@H](CO)O1 [cladribine]		0.73
